Test results: patent publication US9765075B2, “Substituted bridged urea analogs as sirtuin modulators” (GLAXOSMITHKLINE LLC, priority 2013, dated 2017)
Positions count from the first letter of the chain named. Counter-ions that a name gives are not always drawn.

Legend:
Assay in all cases: SIRT1 inhibition assay, OAcADPr mass spectrometry
Assay type in all cases: biochemical
full-length hSIRT1 I227A = target: T1, full-length hSIRT1 I227A (Homo sapiens, UniProt Q96EB6, I227A)
T1 construct: The following point mutants of full-length hSIRT1 were generated; His6 (C); made in house
T1 sequence (Q96EB6 1-747 I227A): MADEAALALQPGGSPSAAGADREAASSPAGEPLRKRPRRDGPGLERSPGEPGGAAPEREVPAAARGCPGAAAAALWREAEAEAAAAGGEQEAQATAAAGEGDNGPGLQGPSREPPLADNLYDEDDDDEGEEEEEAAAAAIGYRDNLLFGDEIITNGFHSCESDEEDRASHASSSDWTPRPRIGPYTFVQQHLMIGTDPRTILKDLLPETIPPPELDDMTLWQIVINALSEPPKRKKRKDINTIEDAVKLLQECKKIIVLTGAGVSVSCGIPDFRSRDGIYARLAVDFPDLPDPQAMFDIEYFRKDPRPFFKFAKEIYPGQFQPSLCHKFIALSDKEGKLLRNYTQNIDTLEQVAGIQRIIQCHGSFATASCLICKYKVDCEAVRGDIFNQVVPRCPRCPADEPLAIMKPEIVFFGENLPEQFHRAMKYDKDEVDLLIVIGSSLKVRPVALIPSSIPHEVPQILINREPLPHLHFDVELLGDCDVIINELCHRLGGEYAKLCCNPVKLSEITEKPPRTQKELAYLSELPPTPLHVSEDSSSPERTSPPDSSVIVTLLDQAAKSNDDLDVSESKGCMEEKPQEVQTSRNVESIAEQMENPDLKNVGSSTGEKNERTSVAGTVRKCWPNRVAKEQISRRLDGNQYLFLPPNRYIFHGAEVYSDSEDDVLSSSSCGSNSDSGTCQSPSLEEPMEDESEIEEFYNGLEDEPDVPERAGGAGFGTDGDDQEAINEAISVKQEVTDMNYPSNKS
Method: SIRT1 activation and inhibition assays were run in reaction buffer with 0.05% BSA at 25° C. and analyzed using the OAcADPr assay. Enzyme and compound were pre-incubated for 20 minutes before addition of substrates. […] In order to be sensitive to KM-modulating activators, substrate concentrations of approximately one-tenth their KM values were used (see Table 5).

[1] = target: T2, full-length hSIRT1 wild-type (Homo sapiens, UniProt Q96EB6)
T2 construct: Full-length human SIRT1 (hSIRT1) proteins were expressed with a C-terminal His6 tag; His6 (C); made in house
T2 sequence (Q96EB6 1-747): T1 sequence (Q96EB6 1-747 I227A) with A227I
Method: (§1) SIRT1 activation and inhibition assays were run in reaction buffer with 0.05% BSA at 25° C. and analyzed using the OAcADPr assay. Enzyme and compound were pre-incubated for 20 minutes before addition of substrates.

full-length hSIRT1 E230A = target: T3, full-length hSIRT1 E230A (Homo sapiens, UniProt Q96EB6, E230A)
T3 construct: His6 (C); made in house
T3 sequence (Q96EB6 1-747 E230A): T1 sequence (Q96EB6 1-747 I227A) with A227I, E230A
Method: as §1

Structure (SMILES): CCCC[C@H](NC(=O)[C@H](CC(C)C)NC(=O)[C@H](CCCCNC(=O)C(F)(F)F)NC(=O)[C@H](CCCCN)NC(=O)[C@H](Cc1c[nH]cn1)NC(=O)[C@H](CCCNC(=N)N)NC(C)=O)C(=O)N[C@@H](Cc1ccccc1)C(N)=O [TFA-p53 7-mer, Ac-RHK-K^TFA-L-Nle-F-NH2]
- IC50 (full-length hSIRT1 I227A): 940 ± 60 nM
- IC50 [1]: 680 ± 70 nM
- IC50 (full-length hSIRT1 E230A): 1300 ± 400 nM
